These results are taken from EP3045469A1, “POLYMYXIN DERIVATIVE AND USES THEREOF” (priority 2015, dated 2016).

Where two headings read alike, the source gives them in different places.

Data set [1] can be described thus: 7-day intravenous toxicity (nephrotoxicity) study in cynomolgus monkeys. Conditions: IV infusion TID; for animals euthanized due to severe nephrotoxic effects: seven days, 3 animals per group. The method, then: In vivo toxicity and toxicokinetic studies were performed by using cynomolgus monkeys. The laboratory that performed the animal studies is accredited by the Association for Assessment and Accreditation of Laboratory Animal Care (AAALAC), has an Animal Welfare Assurance issued by the Office of Laboratory Animal Welfare (OLAW), is registered with the United States Department of Agriculture (USDA), and has an Institutional Animal Care and Use Committee (IACUC) responsible for compliance with applicable laws and regulations concerning the humane care and use of laboratory animals.
Naive female cynomolgus monkeys were acclimatized to study room for 28 days during which each animal was implanted with a permanent indwelling femoral catheter to permit continuous intravenous infusions. The animals were allowed surgical recovery period of at least 2 weeks before initiating dosing.
Polymyxin B sulfate was from Sigma-Aldrich (catalogue number P0972, lot number BCBF8382V). On each day of use, appropriate quantities of NAB739, NAB815 or polymyxin B were weighed and dissolved in appropriate volumes of sterile saline to prepare a stock solution for each test article and positive control. A correction factor was used in the stock solution preparation to account for both the purity and sulfate content in each test article. Accordingly, the dose (such as 36 mg/kg/d) refers to the dose of the pure peptide as its free base form, not as its sulfate salt.
The doses were the following: polymyxin B 18 mg/kg/d (Group 1), polymyxin B 24 mg/kg/d (Group 2), NAB739 24 mg/kg/d (Group 3), NAB739 36 mg/kg/d (Group 4), NAB815 24 mg/kg/d (Group 5), NAB815 36 mg/kg/d (Group 6). Three animals were included in each study groups.
For seven days, the animals were dosed by intravenous (IV) infusion three times daily (TID) at a dose volume of 10 mL/kg for 1 hour (± 10 minutes), 8 ± 0.5 hours apart. The day of initial dose administration was designated study Day 1, with subsequent days consecutively numbered. Days prior to the initial dose administration were consecutively numbered with the final day of acclimation referenced as Day -1.
The following parameters were evaluated at designed intervals: clinical observations, body weights, clinical pathology (hematology, coagulation, serum chemistry, urinalysis including urine sediments and urine chemistry), toxi-cokinetics (plasma and urine) and anatomic pathology (kidney). In cases of animals sacrificed on an unscheduled basis, samples were taken on the day of the sacrifice.
On the day of necropsy, animals were sedated with ketamine, weighed, and anesthetized with an intravenous injection of a commercial pentobarbital and phenytoin solution, followed by exsanguinations.
At necropsy, gross observations and organ weights were recorded, and specific tissues were collected. Histopathology was conducted on sections of kidney stained with hematoxylin and eosin (H&E).
The figures also show Urine N-acetyl-β-D-glucosaminidase/urine creatinine ratio (U-NAG/Crea; Fig. 3) and Urine Gamma Glutamyltransferase/urine creatinine ratio (U-GGT/Crea; Fig. 4), both urine biomarkers for kidney injury, in those animals. S-Crea and U-Crea were measured by using an Olympus Analyzer (OA) and the modified Jaffe method, S-BUN by using OA and urease/L-glutamate dehydrogenase. U-NAG was measured by using OA/enzymatic, and U-GGT by using OA and glutamyl-carboxy-p-nitroanilide IFCC.
The presence of the following nephropathological parameters was recorded in each animal: tubular basophilia (regeneration), tubular degeneration/necrosis, infiltration (by mononuclear and/or mixed inflammatory cells), tubular dilatation, and tubular casts.

A further data set concerns P. aeruginosa ATCC 27853. The method, then: (§1) Synergy studies were performed by using polymyxin derivatives in combination with rifampin, a model compound for such antibacterial agents that the intact outer membrane of Gram-negative bacteria acts as a permeability barrier.
The subject of another data set is K. pneumoniae ATCC 43816. How it is done: as §1
A further data set deals with K. pneumoniae JMI 27072. How it is done: as §1
For a further data set, the system named is A. baumannii ATCC 19606. The method, then: as §1
The subject of the next data set is A. baumannii JMI 48125. How it is done: as §1
The mark [2] stands for this setting: the six animals at 18 mg/kg/d and 24 mg/kg/d.
Where [3] appears, read: alone, Müller-Hinton II broth, 35°C, 20 hours.
The mark [4] stands for this setting: in combination with rifampin (0.25 µg/mL), duplicate checkerboard assays.

Usually MIC stands for the smallest concentration in the dilution series that meets the test's criterion for growth inhibition. Polymyxin B: the “animals euthanized due to severe nephrotoxic effects” value in data set [1] (18 mg/kg/d) was “all the three animals”; in data set [1] (24 mg/kg/d), “Two animals”. Further, the “S-BUN, S-Crea and U-GGT/Crea” value in data set [1] (setting [2]) was “remarkably increased”. Also, the U-NAG/Crea entry in data set [1] (setting [2]) is listed as “remarkably increased in five of the animals”. Also, the MIC in the data set on P. aeruginosa ATCC 27853 (setting [3]) was 2 µg/mL; with P. aeruginosa ATCC 27853 (setting [4]), 1 µg/mL; in the data set with K. pneumoniae ATCC 43816 (setting [3]), 2 µg/mL; in the data set with K. pneumoniae ATCC 43816 (setting [4]), 0.5 to 1 µg/mL; in the data set with K. pneumoniae JMI 27072 (setting [3]) it was 2 µg/mL; with K. pneumoniae JMI 27072 (setting [4]) it was 1 µg/mL. Besides, the MIC in the data set with A. baumannii ATCC 19606 (setting [3]) was 2 µg/mL; in the data set with A. baumannii ATCC 19606 (setting [4]), 0.5 µg/mL; in the data set with A. baumannii JMI 48125 (setting [3]), 2 µg/mL; in the data set with A. baumannii JMI 48125 (setting [4]), 1 µg/mL.
